Here are results for three compounds from patent US10597388B2, “Pyridazinone herbicides” (FMC CORPORATION, priority 2014, dated 2020).

Assay type in all cases: in vivo
The subject of one test is corn (Zea mays). Put plainly: Test A greenhouse herbicide test, pre- and postemergence. The following applies: Postemergence. In outline:
(§1)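 Seeds sown in loam–sand blend got a preemergence directed soil spray of compound in non-phytotoxic solvent with surfactant. Postemergence treatment was given at 2–10 cm, one- to two-leaf stage. After ~10 d in greenhouse, injury was rated visually vs untreated controls, 0 (no effect) to 100 (complete control).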

Test [1] deals with foxtail, giant (giant foxtail, Setaria faberii). The description is as above. The following applies: for pest or weed control at 125 g/ha / pest or weed control at 500 g/ha: Setaria faberi, 240 h. In outline:
as §1

The test system of test [2] is pigweed (Amaranthus retroflexus). The description is as above. The following applies: for pest or weed control at 125 g/ha / pest or weed control at 500 g/ha: Amaranthus retroflexus, 240 h. In outline:
as §1

For test [3], the system named is ragweed (common ragweed, Ambrosia elatior). The description is as above. To be noted: for pest or weed control at 125 g/ha / pest or weed control at 500 g/ha: Ambrosia artemisiifolia, 240 h. An outline of the steps: as §1
Test [4] concerns ryegrass, Italian (Italian ryegrass, Lolium multiflorum). Described as above. The following applies: for pest or weed control at 125 g/ha / pest or weed control at 500 g/ha: Lolium multiflorum, 240 h. An outline of the steps:
as §1

For test [5], the system named is wheat (Triticum aestivum). Described as above. The following applies: Postemergence. An outline of the steps:
as §1

For test [6], the system named is barnyardgrass (Echinochloa crus-galli). Briefly: Test B flooded paddy test. To be noted: 250 g ai/ha, Flood, visual rating on scale of 0 to 100 where 0 is no effect and 100 is complete control, 13 to 15 d after treatment. An outline of the steps: (§2)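 Plants at the 2-leaf stage were flooded to 3 cm above soil, and test compounds were applied directly into the paddy water, which was held at that depth throughout. After 13 to 15 d in a greenhouse, injury was rated visually against untreated controls on a 0–100 scale (0 no effect, 100 complete control).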

The test system of test [7] is ducksalad (Heteranthera limosa). Put plainly: Test B flooded paddy test. The following applies: 250 g ai/ha, Flood, visual rating on scale of 0 to 100 where 0 is no effect and 100 is complete control, 13 to 15 d after treatment. In outline: as §2
Another test has as its system rice (Oryza sativa). Briefly: Test B flooded paddy test. To be noted: 250 g ai/ha, Flood, visual rating on scale of 0 to 100 where 0 is no effect and 100 is complete control, 13 to 15 d after treatment. An outline of the steps: as §2
The subject of test [8] is sedge, umbrella (small-flower umbrella sedge, Cyperus difformis). Briefly: Test B flooded paddy test. To be noted: 250 g ai/ha, Flood, visual rating on scale of 0 to 100 where 0 is no effect and 100 is complete control, 13 to 15 d after treatment. In outline:
as §2

[9] abbreviates: 125 g ai/ha, visual rating after approx. 10 d, 0 to 100 scale (0 no effect, 100 complete control).
[10] abbreviates: 500 g ai/ha, 0 to 100 scale, 0 is no effect, 100 is complete control.
Setting [11] is: Postemergence, 125 g ai/ha, visual rating after approx. 10 d, 0 to 100 scale (0 no effect, 100 complete control).
[12] abbreviates: Postemergence, 500 g ai/ha, 0 to 100 scale, 0 is no effect, 100 is complete control.
[13] abbreviates: Preemergence, 125 g ai/ha, 0 to 100 scale where 0 is no effect and 100 is complete control.
[14] abbreviates: Preemergence, 500 g ai/ha, 0 to 100 scale, 0 no effect, 100 complete control.
[15] abbreviates: 125 g ai/ha, 0 to 100 scale where 0 is no effect and 100 is complete control.
Where [16] appears, read: Postemergence, 125 g ai/ha, 0 to 100 scale where 0 is no effect and 100 is complete control.
Setting [17] is: Preemergence, 500 g ai/ha, 0 to 100 scale where 0 is no effect and 100 is complete control.

The structures appear in SMILES notation. Like-named read-outs stand apart in the source and are kept apart here.

The compound `Cc1ccc2oc(C)c(-c3c(OC(=O)C(C)(C)C)c(C)nn(C)c3=O)c2c1` [Compound 17, 5-(2,5-dimethyl-3-benzofuranyl)-1,6-dihydro-1,3-dimethyl-6-oxo-4-pyridazinyl 2,2-dimethylpropanoate] displayed a Corn plant response rating (crop injury, 0 = no effect, 100 = complete kill) at 125 g/ha with corn (Zea mays) (Zea mays, post-emergence, 240 h, 125 g ai/ha, visual rating after approx. 10 d, 0 to 100 scale (0 no effect, 100 complete control)) of 0%. Further, the plant injury at 500 g/ha in the test on corn (Zea mays) (Zea mays, post-emergence, 240 h, 500 g ai/ha, 0 to 100 scale, 0 is no effect, 100 is complete control, read-out: Corn plant response rating) stood at 0%; in test [5] (Triticum aestivum, post-emergence, 240 h, 500 g ai/ha, 0 to 100 scale, 0 is no effect, 100 is complete control, read-out: Wheat plant response rating) it was 0%. Besides, the pest or weed control at 125 g/ha was 0% in test [1] (post-emergence, Postemergence, 125 g ai/ha, visual rating after approx. 10 d, 0 to 100 scale (0 no effect, 100 complete control), read-out: Plant response rating, Foxtail, Giant); 0% in test [1] (pre-emergence, Preemergence, 125 g ai/ha, 0 to 100 scale where 0 is no effect and 100 is complete control, read-out: Foxtail, Giant plant response rating); 0% in test [2] (post-emergence, Postemergence, 125 g ai/ha, visual rating after approx. 10 d, 0 to 100 scale (0 no effect, 100 complete control), read-out: Plant response rating, Pigweed); 0% in test [2] (pre-emergence, Preemergence, 125 g ai/ha, 0 to 100 scale where 0 is no effect and 100 is complete control, read-out: Pigweed plant response rating); 0% in test [3] (post-emergence, Postemergence, 125 g ai/ha, visual rating after approx. 10 d, 0 to 100 scale (0 no effect, 100 complete control), read-out: Plant response rating, Ragweed); 0% in test [3] (pre-emergence, Preemergence, 125 g ai/ha, 0 to 100 scale where 0 is no effect and 100 is complete control, read-out: Ragweed plant response rating). Moreover, the pest or weed control at 125 g/ha in test [4] (post-emergence, Postemergence, 125 g ai/ha, visual rating after approx. 10 d, 0 to 100 scale (0 no effect, 100 complete control), read-out: Plant response rating, Ryegrass, Italian) was 50%; in test [4] (pre-emergence, Preemergence, 125 g ai/ha, 0 to 100 scale where 0 is no effect and 100 is complete control, read-out: Ryegrass, Italian plant response rating) it was 10%. Also, the pest or weed control at 500 g/ha in test [1] (post-emergence, Postemergence, 500 g ai/ha, 0 to 100 scale, 0 is no effect, 100 is complete control, read-out: Foxtail, Giant plant response rating) was 0%; in test [1] (pre-emergence, Preemergence, 500 g ai/ha, 0 to 100 scale, 0 no effect, 100 complete control, read-out: Plant response rating, Foxtail, Giant), 0%; in test [2] (post-emergence, Postemergence, 500 g ai/ha, 0 to 100 scale, 0 is no effect, 100 is complete control, read-out: Pigweed plant response rating), 0%; in test [2] (pre-emergence, Preemergence, 500 g ai/ha, 0 to 100 scale, 0 no effect, 100 complete control, read-out: Plant response rating, Pigweed), 0%; in test [3] (post-emergence, Postemergence, 500 g ai/ha, 0 to 100 scale, 0 is no effect, 100 is complete control, read-out: Ragweed plant response rating), 0%; in [3] (pre-emergence, Preemergence, 500 g ai/ha, 0 to 100 scale, 0 no effect, 100 complete control, read-out: Plant response rating, Ragweed) it was 10%. Besides, the pest or weed control at 500 g/ha was found to be 60% in test [4] (post-emergence, Postemergence, 500 g ai/ha, 0 to 100 scale, 0 is no effect, 100 is complete control, read-out: Ryegrass, Italian plant response rating) and 40% in [4] (pre-emergence, Preemergence, 500 g ai/ha, 0 to 100 scale, 0 no effect, 100 complete control, read-out: Plant response rating, Ryegrass, Italian). In test [5] (Triticum aestivum, post-emergence, 240 h, 125 g ai/ha, visual rating after approx. 10 d, 0 to 100 scale (0 no effect, 100 complete control), read-out: Plant response rating, Wheat), the plant injury at 125 g/ha turned out to be 0%. The pest or weed control at 250 g/ha in test [6] (Echinochloa crus-galli, 360 h, read-out: Plant response rating, Barnyardgrass) was 0%; in [7] (Heteranthera limosa, 360 h, read-out: Plant response rating, Ducksalad) it was 0%; in test [8] (Cyperus difformis, 360 h, read-out: Plant response rating, Sedge, Umbrella), 0%. Further, the plant injury at 250 g/ha in the test with rice (Oryza sativa) (Oryza sativa, 360 h, read-out: Plant response rating, Rice) is 0%.

In the case of `Cn1nc(Br)c(O)c(-c2cccc3ccccc23)c1=O` [Compound 20], in the test with corn (Zea mays) (setting [9]), the “Plant response rating, Corn” value worked out at 20. The “Corn plant response rating” value in the test on corn (Zea mays) (setting [10]) came to 30. In addition, the “Plant response rating, Foxtail, Giant” value is given as 30 in test [1] (setting [11]) and 90 in test [1] (setting [14]). For the same compound, the “Foxtail, Giant plant response rating” value in test [1] (setting [12]) is listed as 100; in test [1] (setting [13]), 40. Also, the “Plant response rating, Pigweed” value in test [2] (setting [11]) and in [2] (setting [14]) was 100 throughout. For the same compound, the results for the “Pigweed plant response rating” value in test [2] (setting [12]) and in test [2] (setting [13]) were 100 and 80, respectively. Moreover, the “Plant response rating, Ragweed” value in test [3] (setting [11]) stood at 80; in test [3] (setting [14]), 90. For the same compound, the “Ragweed plant response rating” value in [3] (setting [12]) turned out to be 100; in test [3] (setting [13]), 30. Also, the “Plant response rating, Ryegrass, Italian” value in test [4] (setting [11]) and in test [4] (setting [14]) was 100 throughout. For the same compound, the “Ryegrass, Italian plant response rating” value in test [4] (setting [12]) worked out at 100; in test [4] (setting [13]), 90. The “Plant response rating, Wheat” value in test [5] (setting [9]) is recorded as 20. Also, in test [5] (setting [10]), the “Wheat plant response rating” value amounted to 30. Besides, the “Plant response rating, Barnyardgrass” value in test [6] is on record as 0. The “Plant response rating, Ducksalad” value in test [7] is 50. In the test on rice (Oryza sativa), the “Plant response rating, Rice” value was 0. In addition, the “Plant response rating, Sedge, Umbrella” value in [8] is 50.

In the case of `Cc1sc2ccccc2c1-c1c(O)c(Cl)nn(C)c1=O` [Compound 89], the “Plant response rating, Corn” value with corn (Zea mays) (setting [15]) is recorded as 0. In addition, the “Corn plant response rating” value in the test with corn (Zea mays) (setting [10]) is recorded as 0. Moreover, the “Plant response rating, Foxtail, Giant” value in [1] (setting [16]) is listed as 70; in [1] (setting [17]) it was 80. The “Foxtail, Giant plant response rating” value in test [1] (setting [12]) was found to be 80; in test [1] (setting [13]), 50. For the same compound, the “Plant response rating, Pigweed” value worked out at 80 in test [2] (setting [16]) and 100 in [2] (setting [17]). In addition, the “Pigweed plant response rating” value in [2] (setting [12]) turned out to be 90; in test [2] (setting [13]), 100. Moreover, the “Plant response rating, Ragweed” value in [3] (setting [16]) was found to be 80; in test [3] (setting [17]), 90. Besides, the “Ragweed plant response rating” value in [3] (setting [12]) came to 90; in test [3] (setting [13]), 80. For the same compound, the “Plant response rating, Ryegrass, Italian” value in [4] (setting [16]) was determined as 80; in test [4] (setting [17]), 90. Moreover, the figures for the “Ryegrass, Italian plant response rating” value in test [4] (setting [12]) and in test [4] (setting [13]) were 90 and 80, respectively. Besides, in [5] (setting [15]), the “Plant response rating, Wheat” value amounted to 0. In test [5] (setting [10]), the “Wheat plant response rating” value was 0. For the same compound, the “Plant response rating, Barnyardgrass” value in test [6] is reported as 0. In [7], the “Plant response rating, Ducksalad” value stood at 65. The “Plant response rating, Rice” value with rice (Oryza sativa) is recorded as 0. The “Plant response rating, Sedge, Umbrella” value in test [8] is given as 40.
